# In patent publication US8052987B2, “Method of administering bisphosphonates” (Novartis Pharmaceuticals Corporation, priority 2000, dated 2011):
# Assays:
# [1] = test system: patients with postmenopausal osteoporosis; test: 12 month dose-ranging trial of iv zoledronic acid: percent change from baseline in bone mineral density (DEXA) versus placebo; format: in vivo, human; details: for Difference versus placebo for percent change from baseline in bone mineral density of the lumbar spine; postero anterior (L1-L4): at 12 months, ITT population
# From the text: “A Multinational, Randomized, Double-Blind, Placebo-Controlled, Parallel-Group, Dose-Ranging, Safety and Efficacy Trial With Intravenous Bolus Injections of Zoledronate In the Treatment of Postmenopausal Osteoporosis”
# (§1) This was a dose and dose regimen-finding 12 month trial of iv zoledronic acid in patients with postmenopausal osteoporosis. Three hundred and fifty one patients were randomized to six study arms. Patients who had recent exposure to bone active drugs, e.g. bisphosphonates, estrogen, calcitonin, raloxifene, or a history of metabolic bone diseases were excluded. All patients were evaluated at baseline and in 3-monthly visits. Zoledronic acid or placebo was administered as a bolus iv injection into a peripheral vein over 5 minutes at every visit.
# Efficacy was ascertained by measurement of percent change from baseline in bone mineral density (BMD) measured by dual energy X-ray absorptiometry (DEXA) as compared to placebo, at 6, 9, and 12 months.
# (§2) • Placebo • 0.25 mg zoledronic acid every 3 months • 0.5 mg zoledronic acid every 3 months • 1.0 mg zoledronic acid every 3 months • 2.0 mg zoledronic acid every 6 months • 4.0 mg zoledronic acid every 12 months
# [2] = test system: patients with postmenopausal osteoporosis; test: Suppression of biochemical markers of bone turnover in the same trial; format: in vivo, human; details: throughout the 6 and 12 month dosing intervals
# Procedure: as §1
# Additionally, the degree and duration of suppression of biochemical markers of bone turnover—parathyroid hormone (PTH), bone specific alkaline phosphatase (BSAP), serum C-telopeptide (CTX), serum osteocalcin, urine N-telopeptide (NTX)/creatinine ratio, urine deoxypyridinoline (d-pyd)/creatinine ratio, urine pyridinoline (pyd)/creatinine ratio—was obtained every 3 months and measured in a central laboratory.
# as §2
compound,measurement,setting,value
"O=P(O)(O)C(O)(Cn1ccnc1)P(=O)(O)O [zoledronate, 2-(imidazol-1yl)-1-hydroxyethane-1,1-diphosphonic acid]",Difference versus placebo for percent change from baseline in bone mineral density of the lumbar spine; postero anterior (L1-L4),[1]; 1 × 4.0 mg (4.0 mg iv every 12 months),4.6%
same,Difference versus placebo for percent change from baseline in bone mineral density of the lumbar spine; postero anterior (L1-L4),[1]; 2 × 2.0 mg (2.0 mg iv every 6 months),4.2%
same,Difference versus placebo for percent change from baseline in bone mineral density of the lumbar spine; postero anterior (L1-L4),[1]; 4 × 0.25 mg (0.25 mg iv every 3 months),5.1%
same,Difference versus placebo for percent change from baseline in bone mineral density of the lumbar spine; postero anterior (L1-L4),[1]; 4 × 0.5 mg (0.5 mg iv every 3 months),4.9%
same,Difference versus placebo for percent change from baseline in bone mineral density of the lumbar spine; postero anterior (L1-L4),[1]; 4 × 1.0 mg (1.0 mg iv every 3 months),4.5%
same,percent change from baseline in BMD compared with placebo,"[1]; all treatment arms, 12 month results",significantly (p<0.001) greater than placebo
same,Bone mineral density compared to placebo,"[1]; at the spine, hip, distal radius, and total body",increased compared to placebo
same,bone mass increase (BMD data),[1]; dose administration as infrequent as every 6 or 12 months,statistically significant and medically relevant bone mass increase
same,Suppression of biochemical markers of bone formation and bone resorption,[2],suppression of bone turnover to the pre-menopausal level
